In paper PMC11220654, “A Frog Skin‐Derived Peptide Targeting SCD1 Exerts Radioprotective Effects Against Skin Injury by Inhibiting STING‐Mediated Inflammation” (Advanced Science, 2024):

Legend:
Format in all cases: cell-based, human
[1] = system: irradiated HaCaT cells; experiment: Autophagy, mRFP-GFP-LC3 infection study and LC3 II Western blotting; conditions: 15 µM RIFSP-2, Western blotting
Excerpt: Figure 4 MUFAs facilitate ionizing radiation‐induced STING activation, which is disrupted by RIFSP‐2. A) Bioinformatic analysis of the connection between specific binding proteins of RIFSP‐2 (green nodes) and STING (red nodes) in irradiated skin cells. B) Detection of the phosphorylation of STING in RIFSP‐2‐treated and irradiated HaCaT cells through IP analysis. C) Detection of the phosphorylation of TBK1 in RIFSP‐2‐treated primary skin cells from STING wild type mice and depletion ones through Western blotting analysis. D) Investigation of the interaction between STING and RIFSP‐2 in irradiated HaCaT cells based on the established Avidin‐Biotin‐RIFSP‐2 system. E) Volcano plots of differences between lipid class in irradiated HaCaT cells pretreated with RIFSP‐2 or not. F) Influence of LPC (18:1) and RIFSP‐2 in STING downstream signals in irradiated HaCaT cells through Western blotting analysis. G) Influence of LPC (18:1) and RIFSP‐2 in STING downstream inflammatory factors in irradiated HaCaT and RAW 264.7 cells through ELISA assays. […] J) Alteration of biomarkers for autophagy and pyroptosis in irradiated HaCaT cells pretreated with 15 µM RIFSP‐2 in combination with H151 or MF438, detected by Western blotting. *P < 0.05 and **P < 0.01, compared with the control group. […]

[2] = system: irradiated skin cells; experiment: LDH release and JC-1 staining with H151; conditions: RIFSP-2 15 µM
Excerpt: Next, we investigated whether suppression of the SCD1‐MUFA‐STING axis by RIFSP‐2 accounts for its protective effect against radiation injury in skin cells. […] Besides, Sting knockout dramatically limited the clonogenic formation ability after administration of RIFSP‐2 (Figure S4F, Supporting Information).
Figure 5 RIFSP‐2 mitigates radiation injury in a STING‐related manner. A) Cell proliferation and death assays for influence of RIFSP‐2 in primary skin cells from STING‐depleted and wild‐type mice detected by CCK‐8 and LDH analysis. B) LDH analysis of irradiated and nonirradiated skin cells pretreated with 15 µM RIFSP‐2 in combination with H151 or not. […]
A clonogenic survival assay of skin cells was performed as previously reported (1). […] Colonies consisting of 50 or more cells were counted as a clone. The relative clonogenic survival fraction was calculated using ImageJ software as previously reported […]
Cells were seeded in a 96-well plate at a density of 1 X 10^4 cells per well. […] In vitro viability was measured using the Cell Counting Kit-8 (CCK-8) (Dojindo Laboratories, Kumamoto, Japan).
Optical density was measured at 450 nm using a microplate reader (Biotek, Winooski, VT).
Cell death was measured by the level of LDH released into the supernatant using an LDH cytotoxicity assay kit (Beyotime, Nantong, China) according to the manufacturer’s instructions. […]

[3] = system: skin cells; experiment: BODIPY 581/591 C11 probe (ferroptosis) and AV/PI staining
Procedure: Figure 3 RIFSP‐2 restrained SCD1‐mediated biogenesis of MUFA in irradiated skin cells. A) Schematic showing the proteomic analysis performed to investigate the interactome of RIFSP‐2 in irradiated skin cells, as determined by liquid chromatography with tandem mass spectrometry (LC–MS/MS), based on the Avidin‐Biotin‐RIFSP‐2 system. B) Bradford staining of proteins pulled down with Biotin‐RIFSP‐2 and Venn diagram showing common and specific interactomes detected by LC–MS/MS and representative proteins. C) The enriched functions of RIFSP‐2 interactomes in irradiated skin cells based on Gene Ontology (GO) molecular function analysis. D) Colocalization analysis showing FITC‐RIFSP‐2 (green) and ER‐Tracker (red) in irradiated HaCaT cells. E) Changes in neutral lipid droplet formation in irradiated skin cells treated with RIFSP‐2 detected via BODIPY 493/503 probe staining. F) Verification of the interaction between RIFSP‐2 and SCD1 through immunoprecipitation (IP) analysis. G) Molecular simulation of the interaction between RIFSP‐2 and SCD1. […] M–P) Influence of the SCD1 inhibitor MF438 on the neutral lipid droplet formation, […], as detected by BODIPY 493/503 probe staining, BODIPY 581/591 C11 probe staining and AV/PI staining. *P < 0.05 and **P < 0.01, compared with the control group. […]

[4] = system: STING phosphorylation in irradiated skin cells; experiment: STING phosphorylation by IP analysis; conditions: irradiated skin cells (HaCaT)
Excerpt: Considering the localization of RIFSP‐2 in ER, we then investigated the potential connection between RIFSP‐2 and STING. First, we adopted a proteomic analysis to investigated the interactomes of STING in HaCaT cells, and identified 136 specific proteins in response to radiation. Then, strong connections between specific interactomes for RIFSP‐2 and STING in irradiated skin cells were established in protein interactive analysis, with confidence score > 0.7 (high confidence) (Figure 4A).
Figure 4 MUFAs facilitate ionizing radiation‐induced STING activation, which is disrupted by RIFSP‐2. A) Bioinformatic analysis of the connection between specific binding proteins of RIFSP‐2 (green nodes) and STING (red nodes) in irradiated skin cells. B) Detection of the phosphorylation of STING in RIFSP‐2‐treated and irradiated HaCaT cells through IP analysis. C) Detection of the phosphorylation of TBK1 in RIFSP‐2‐treated primary skin cells from STING wild type mice and depletion ones through Western blotting analysis. […] J) Alteration of biomarkers for autophagy and pyroptosis in irradiated HaCaT cells pretreated with 15 µM RIFSP‐2 in combination with H151 or MF438, detected by Western blotting. *P < 0.05 and **P < 0.01, compared with the control group. […]
Cells were subjected to indicated treatments. […] The protein level was detected by the indicated antibodies with Western blotting analysis.

[5] = system: skin cells; experiment: BODIPY 493/503 probe staining, neutral lipid droplets; conditions: pretreatment
Procedure: Figure 3 RIFSP‐2 restrained SCD1‐mediated biogenesis of MUFA in irradiated skin cells. A) Schematic showing the proteomic analysis performed to investigate the interactome of RIFSP‐2 in irradiated skin cells, as determined by liquid chromatography with tandem mass spectrometry (LC–MS/MS), based on the Avidin‐Biotin‐RIFSP‐2 system. B) Bradford staining of proteins pulled down with Biotin‐RIFSP‐2 and Venn diagram showing common and specific interactomes detected by LC–MS/MS and representative proteins. C) The enriched functions of RIFSP‐2 interactomes in irradiated skin cells based on Gene Ontology (GO) molecular function analysis. D) Colocalization analysis showing FITC‐RIFSP‐2 (green) and ER‐Tracker (red) in irradiated HaCaT cells. E) Changes in neutral lipid droplet formation in irradiated skin cells treated with RIFSP‐2 detected via BODIPY 493/503 probe staining. F) Verification of the interaction between RIFSP‐2 and SCD1 through immunoprecipitation (IP) analysis. G) Molecular simulation of the interaction between RIFSP‐2 and SCD1. […] M–P) Influence of the SCD1 inhibitor MF438 on the neutral lipid droplet formation, ferroptosis, and apoptosis of irradiated skin cells pretreated with RIFSP‐2, as detected by BODIPY 493/503 probe staining, BODIPY 581/591 C11 probe staining and AV/PI staining. *P < 0.05 and **P < 0.01, compared with the control group. […]

Row | SMILES | influence of pretreatment on the increase in LC3 II levels induced by RIFSP-2 [1] | LDH release [2] | influence of pretreatment on the RIFSP-2 effects on ferroptosis and AV staining [3] | STING phosphorylation [4] | formation of neutral lipid droplets [5]
1 | CCc1ccc(NC(=O)Nc2c[nH]c3ccccc23)cc1 [H151] | not | attenuated LDH release |  |  | 
2 | Cc1nnc(-c2ccc(N3CCC(Oc4ccccc4C(F)(F)F)CC3)nn2)s1 [MF‐438] | dramatically limited the increase in LC3 II levels |  | diminished these effects | significant reduction in STING phosphorylation | effectively promoted the formation of neutral lipid droplets
